Assays:
[1] = common organic solvents, e.g., acetone, methylene chloride; cited from earlier work
[2] = test system: mice; experiment: lethality (LD50) in mice, ADJ/PC6 antitumor test; type: in vivo; details: for P.O. LD50: oral (P.O.); for I.P. LD50: parenteral (I.P.)
Protocol: (§1) Complexes according to the invention were tested for antitumor activity using ADJ/PC6 tumor in mice. The complexes were administered parenterally (I.P.) or orally (P.O.).

[3] = test system: ADJ/PC6 tumor; experiment: antitumor activity using ADJ/PC6 tumor in mice; type: in vivo; details: for P.O. ED90 / P.O. TI: oral (P.O.); for P.O. TI / I.P. TI: TI from LD50 and ED90; for I.P. ED90 / I.P. TI: parenteral (I.P.)
Protocol: as §1

## N.N.O=C([O-])C1(C(=O)[O-])CCC1.[Pt+2] [carboplatin]
[1]
  solubility in water / organic solvents (in words), prior-art complexes: dissolve more readily in water than they do in common organic solvents

## c-t-c-PtCl2 (O2 CCH2 CH3)2 (NH3)(n-C3 H7 NH2) [Compound 9 (Table 2)]
[2]
  P.O. LD50: 118 mg/kg
  I.P. LD50: 41.5 mg/kg
[3]
  P.O. ED90: 8.6 mg/kg
  P.O. TI: 13.7
  I.P. ED90: 5.6 mg/kg
  I.P. TI: 7.4

## c-t-c-PtCl2 (O2 CCH3)2 (NH3)(n-C3 H7 NH2) [Compound 8 (Table 2)]
[2]
  P.O. LD50: 235 mg/kg
  I.P. LD50: 35 mg/kg
[3]
  P.O. ED90: 18 mg/kg
  P.O. TI: 13.1
  I.P. ED90: 3.1 mg/kg
  I.P. TI: 11.3
